Drawing on US6486173B2, “5-HT7 receptor antagonists” (Bristol-Myers Squibb Pharma Company, priority 1998, dated 2002), this text covers melting point and 5-HT7 receptor affinity for 27 molecules.

System in the first series: not given
Settings: not given
Usually melting point stands for the temperature, or range, at which the solid turns liquid. In turn, `Fc1ccc(C2(CCCN3Cc4ccccc4C3)OCCO2)cc1.O=C(O)/C=C\C(=O)O` came in with a melting point of 141 to 142 °C.
The same measure, in the same setting: with `O=C(CCCN1CCc2ccccc2C1)c1ccc(F)cc1.O=C(O)/C=C\C(=O)O` the figure was 129 to 130 °C; with `O=C(CCCN1Cc2cc3ccccc3cc2C1)c1ccc(F)cc1.O=C(O)/C=C\C(=O)O`, 157 to 158 °C; with `O=C(CCCN1CCc2ccccc2C1)c1ccncc1.O=C(O)/C=C\C(=O)O`, 108 to 109 °C.
In turn, `O=C(CCCN1Cc2cccc3cccc(c23)C1)c1ccc(F)cc1.O=C(O)/C=C\C(=O)O` yielded a melting point of 151 to 155 °C.
Still for that read-out and setting: with `O=C(CCCN1CCc2ccccc2C1)c1cccs1.O=C(O)/C=C\C(=O)O` the figure was 154 to 155 °C.
On to `COc1cc2c(cc1OC)CN(CCCC(=O)c1ccc(F)cc1)CC2.O=C(O)/C=C\C(=O)O`, for which the melting point is 144 to 146 °C.
Still for that read-out and setting: next, `O=C(O)/C=C\C(=O)O.O=c1[nH]c2ccccc2n1CCCN1CCc2ccccc2C1`: 153 to 154 °C; `O=C(O)/C=C\C(=O)O.c1ccc(-c2cc(CN3CCc4ccccc4C3)on2)cc1`: 190 to 192 °C; `Fc1ccc(OCCCN2Cc3ccccc3C2)cc1.O=C(O)/C=C\C(=O)O`: 115 to 117 °C.
On the same count and under the same terms, with `Cl.Fc1ccc(SCCCN2CCc3ccccc3C2)cc1` the figure was 171 to 173 °C; with `Cl.Fc1ccc(SCCCN2Cc3ccccc3C2)cc1`, 125 to 126 °C.
Molecule `O=C(O)/C=C\C(=O)O.O=S(=O)(CCCN1Cc2ccccc2C1)c1ccc(F)cc1` gave a melting point of 151 to 152 °C.
Still for that read-out and setting: with `Cl.O=S(=O)(CCCN1CCc2ccccc2C1)c1ccc(F)cc1` the figure was 212 to 215 °C; with `Cc1ccc(C2(CCCN3Cc4ccccc4C3)OCCO2)cc1.O=C(O)/C=C\C(=O)O`, 159 to 161 °C (dec.); with `Cl.O=S(=O)(c1ccc(F)cc1)N1CCC(N2CCc3ccccc3C2)CC1`, over 240 °C.
`Fc1ccc(C2(CCCN3CCc4ccccc4C3)OCCO2)cc1.O=C(O)/C=C\C(=O)O` yielded a melting point of 160 to 162 °C.
The same measure, in the same setting: next, `O=C(O)/C=C\C(=O)O.OC(CCCN1Cc2ccccc2C1)c1ccc(F)cc1` (stereo not drawn): 113 to 114 °C.
In the case of `O=C(CCCN1CC[C@@H]2CCCC[C@H]2C1)c1ccc(F)cc1.O=C(O)/C=C\C(=O)O` (racemic), the melting point was in the range of 157 to 158 °C.
Same read-out and setting: with `Fc1ccc(C2=NOC(CN3CCc4ccccc4C3)C2)cc1.O=C(O)/C=C\C(=O)O` (racemic) the figure was 153 to 155 °C.

The target in another series is 5-HT7 receptor (Homo sapiens, UniProt P34969). Conditions: background statement; profile consistent across species; cited from earlier work.
5-HT7 receptor, sequence (P34969 whole entry): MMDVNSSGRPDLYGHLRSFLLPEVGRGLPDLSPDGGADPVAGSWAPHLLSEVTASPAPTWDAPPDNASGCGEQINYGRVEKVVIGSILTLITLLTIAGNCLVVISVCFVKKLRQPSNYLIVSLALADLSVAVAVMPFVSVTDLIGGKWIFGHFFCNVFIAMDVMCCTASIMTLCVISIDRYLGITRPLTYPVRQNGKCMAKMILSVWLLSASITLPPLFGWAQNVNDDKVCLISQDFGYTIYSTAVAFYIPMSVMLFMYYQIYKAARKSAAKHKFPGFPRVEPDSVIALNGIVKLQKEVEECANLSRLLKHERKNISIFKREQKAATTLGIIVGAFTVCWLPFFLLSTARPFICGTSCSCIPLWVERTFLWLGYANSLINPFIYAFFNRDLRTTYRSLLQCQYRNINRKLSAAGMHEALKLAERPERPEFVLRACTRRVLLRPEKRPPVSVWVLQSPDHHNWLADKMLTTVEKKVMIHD
On to 5-HT [Example 5-HT], for which the 5-HT7 receptor affinity entry is reported as “high 5-HT7 receptor affinity”.
Regarding `O=C1CC2(CCCC2)CC(=O)N1CCCCN1CCN(c2ncccn2)CC1` [buspirone], the 5-HT7 receptor affinity entry is reported as “low affinity”.
As to `Cc1nc2sccn2c(=O)c1CCN1CCC(=C(c2ccc(F)cc2)c2ccc(F)cc2)CC1` [ritanserin], the 5-HT7 receptor affinity result is given as “moderate affinity”.
With `CNS(=O)(=O)Cc1ccc2[nH]cc(CCN(C)C)c2c1` [sumatriptan], the 5-HT7 receptor affinity result was “low affinity”.

Staying with this series, now noted: cited from earlier work.
As to `COc1ccc2[nH]cc(CCN)c2c1` [Example 5-MeOT, 5-MeOT], the 5-HT7 receptor affinity entry is given as “high 5-HT7 receptor affinity”.
For `CCCN(CCC)C1CCc2cccc(O)c2C1` (stereo not drawn) [Example 8-OHDPAT, 8-OHDPAT], the 5-HT7 receptor affinity result is on record as “moderate affinity”.
For `CC(C)NCC(O)COc1cccc2[nH]ccc12` (stereo not drawn) [pindolol], the 5-HT7 receptor affinity result is “low affinity”.
